Calls of active or inactive are those of the source. The rule behind the calls is not given here.
Key:
Format in all cases: functional, organism-based
[1] = system: Human immunodeficiency virus 1; assay: Antiviral activity against HIV1 Env-pseudovirus infected in human Jurkat E6-1 cells after 2 days by luciferase assay; conditions: for IC50: Human immunodeficiency virus 1, Jurkat, 48 h
[2] = system: Human immunodeficiency virus 1; assay: Antiviral activity against HIV1 Env-pseudovirus infected in mouse 3T3.T4.CCR5 cells after 2 days by luciferase assay
[3] = system: Human immunodeficiency virus 1; assay: Antiviral activity against HIV1 MN infected in human C8166 cells; conditions: Human immunodeficiency virus 1, MN

## CC(C)=CC[C@H]1C[C@]2(CC=C(C)C)C(=O)[C@@](CC=C(C)C)(C(=O)C(C(=O)c3ccccc3)=C2O)C1(C)C (stereo in doubt; 2)
[1]
  Activity: Active

## COC1=C(C(=O)c2ccccc2)C(=O)[C@]2(CC=C(C)C)C[C@H](CC=C(C)C)C(C)(C)C1(CC=C(C)C)C2=O
[2]; 3t3.t4.ccr5
  IC50: Not Active

## Cc1ccnc2c1NC(=O)c1cccnc1N2C1CC1 [NEVIRAPINE]
[1]
  IC50: 40 nM

## CC(C)=CC[C@H]1C[C@]2(CC=C(C)C)C(=O)[C@@](CC=C(C)C)(C(=O)C(C(=O)c3ccccc3)=C2O)C1(C)C (stereo in doubt; 1)
[1]
  Activity: Active

## Cc1cn([C@H]2C[C@H](N=[N+]=[N-])[C@@H](CO)O2)c(=O)[nH]c1=O [ZIDOVUDINE]
[1]
  IC50: 120 nM

## CC(C)=CC[C@H]1C[C@]2(CC=C(C)C)C(=O)[C@@](CC=C(C)C)(C(=O)C(C(=O)c3ccccc3)=C2O)C1(C)C (stereo in doubt; 1) [6-EPI-CLUSIANONE]
[3]
  EC50: 20 nM
[2]; Human immunodeficiency virus 1, 3T3.T4.CCR5, 48 h, read-out: IC50
  IC50: 1530 nM

## CC(C)=CC[C@H]1C[C@]2(CC=C(C)C)C(=O)[C@@](CC=C(C)C)(C(=O)C(C(=O)c3ccccc3)=C2O)C1(C)C (stereo in doubt; 2) [6-EPI-CLUSIANONE]
[2]; 3t3.t4.ccr5, read-out: IC50
  IC50: 1130 nM
